Reference: patent US8846684B2 (priority 2011, dated 2014)

Tested on: WEEV replicon
Test: microbe, parasite or virus in culture
Type: cell-based, Western equine encephalitis virus
Details: Western equine encephalitis virus; for activity at 50 µM: read-out: 50 μM (% control) Luc

For O=C(NC1Cc2ccccc2C1)C1CCN(C(=O)c2cc3ccccc3n2Cc2ccc(Cl)cc2)CC1 [CCG 205471, 1-(1-(4-chlorobenzyl)-1H-indole-2-carbonyl)-N-(2,3-dihydro-1H-inden-2-yl)piperidine-4-carboxamide], the activity at 50 µM was 60.9%.
O=C(c1cc2ccccc2n1Cc1ccc(Cl)cc1)N1CCC(C(=O)N2CCCC2c2ccccc2)CC1 (stereo not shown) [CCG 205473, (1-(4-chlorobenzyl)-1H-indol-2-yl)(4-(2-phenylpyrrolidine-1-carbonyl)piperidin-1-yl)methanone] gave an activity at 50 µM of 33.9%.
Compound O=C(c1cc2ccccc2n1Cc1ccc(Cl)cc1)N1CCC(C(=O)N2CCC(c3ccccc3)C2)CC1 (stereo not shown) [CCG 205474, (1-(4-chlorobenzyl)-1H-indol-2-yl)(4-(3-phenylpyrrolidine-1-carbonyl)piperidin-1-yl)methanone] has an activity at 50 µM of 57.1%.
Work on O=C(c1cc2ccccc2n1Cc1ccc(Cl)cc1)N1CCC(CN2CCCCC2)CC1 [CCG 205476, (1-(4-chlorobenzyl)-1H-indol-2-yl)(4-(piperidin-1-ylmethyl)piperidin-1-yl)methanone] yielded an IC50 of 9.8 µM and an activity at 50 µM of 6.5%.
Compound COc1ccc(Cn2c(C(=O)N3CCC(C(=O)N(C)Cc4ccccc4)CC3)cc3ccccc32)cc1 [CCG 205477, N-benzyl-1-(1-(4-methoxybenzyl)-1H-indole-2-carbonyl)-N-methylpiperidine-4-carboxamide] has an IC50 of 16.5 µM and an activity at 50 µM of 33.3%.
For O=C(NCc1ccccc1)C1CCCN(C(=O)c2cc3ccccc3n2Cc2ccc(Cl)cc2)C1 (stereo not shown) [CCG 205483, N-benzyl-1-(1-(4-chlorobenzyl)-1H-indole-2-carbonyl)piperidine-3-carboxamide], the IC50 was 30.6 µM and the activity at 50 µM was 44.1%.
With CN(Cc1ccccc1)C(=O)C1CCN(C(=O)c2cc3ccccc3n2Cc2ccc([N+](=O)[O-])cc2)CC1 [CCG 205484, N-benzyl-N-methyl-1-(1-(4-nitrobenzyl)-1H-indole-2-carbonyl)piperidine-4-carboxamide] the IC50 was 41.9 µM and the activity at 50 µM was 54%.
For O=C(c1cc2ccccc2n1Cc1ccc(Cl)cc1)N1CCN(Cc2ccccc2)CC1 [CCG 206327, (4-benzylpiperazin-1-yl)(1-(4-chlorobenzyl)-1H-indol-2-yl)methanone], the IC50 was 11.5 µM and the activity at 50 µM was 33.3%.
Compound CC(NC(=O)C1CCN(C(=O)c2cc3ccccc3n2Cc2ccc(Cl)cc2)CC1)c1ccncc1 (stereo not shown) [CCG 206329, 1-(1-(4-chlorobenzyl)-1H-indole-2-carbonyl)-N-(1-(pyridin-4-yl)ethyl)piperidine-4-carboxamide] has an IC50 of 2.39 µM and an activity at 50 µM of 12.7%.
CN(Cc1ccccc1)C(=O)C1CCN(C(=O)c2cc3ccccc3n2Cc2ccc(C#N)cc2)CC1 [CCG 206330, N-benzyl-1-(1-(4-cyanobenzyl)-1H-indole-2-carbonyl)-N-methylpiperidine-4-carboxamide] was tested, and the IC50 was 79.3 µM and the activity at 50 µM was 45.2%.
Compound COCCn1c(C(=O)N2CCC(C(=O)N(C)Cc3ccccc3)CC2)cc2ccccc21 [CCG 206331, N-benzyl-1-(1-(2-methoxyethyl)-1H-indole-2-carbonyl)-N-methylpiperidine-4-carboxamide] has an activity at 50 µM of 74.5%.
For CC(C)Cn1c(C(=O)N2CCC(C(=O)N(C)Cc3ccccc3)CC2)cc2ccccc21 [CCG 206332, N-benzyl-1-(1-isobutyl-1H-indole-2-carbonyl)-N-methylpiperidine-4-carboxamide], the IC50 was 27.9 µM and the activity at 50 µM was 1.7%.
CC(=O)n1c(C(=O)N2CCC(C(=O)N(C)Cc3ccccc3)CC2)cc2ccccc21 [CCG 206333, 1-(1-acetyl-1H-indole-2-carbonyl)-N-benzyl-N-methylpiperidine-4-carboxamide] gave an activity at 50 µM of 58.5%.
Compound O=C(Nc1ccccc1)C1CCN(C(=O)c2cc3ccccc3n2Cc2ccc(Cl)cc2)CC1 [CCG 206334, 1-(1-(4-chlorobenzyl)-1H-indole-2-carbonyl)-N-phenylpiperidine-4-carboxamide] has an activity at 50 µM of 77.3%.
